Laboratory results as given in patent publication US8076487B2, “Pyridone derivative and herbicide” (Kumiai Chemical Industry Co., Ltd., priority 2006, dated 2011).

Experiments:
Assay type in all cases: in vivo
[1] = system: green foxtail (Setaria viridis (L.) P. Beauv.); assay: Test Example 3: herbicidal effect by application to upland field (foliage treatment); conditions: 14th day after application; for herbicidal effect, Green Foxtail: foliage treatment, 1,000 g active ingredient per 1 hectare, greenhouse
How it was run: (§1)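 A single foliar application of a water-diluted wettable powder, at 1,000 g of active ingredient per hectare, was made to plants raised for two weeks from seed in field soil. Herbicidal activity was judged visually after a further 14 days in the greenhouse.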

[2] = system: slender amaranth (Amaranthus viridis L.); assay: as above; conditions: 14th day after application; for herbicidal effect, Slender Amaranth: foliage treatment, 1,000 g active ingredient per 1 hectare, greenhouse
How it was run: as §1

[3] = system: velvetleaf (Abutilon theophrasti medicus); assay: as above; conditions: 14th day after application; for herbicidal effect, Velvetleaf: foliage treatment, 1,000 g active ingredient per 1 hectare, greenhouse
How it was run: as §1

[4] = system: barnyardgrass (Echinochloa crus-galli (L.) P. Beauv. var. crus-galli); assay: as above; conditions: 14th day after application; for herbicidal effect, Barnyardgrass: foliage treatment, 1,000 g active ingredient per 1 hectare, greenhouse
How it was run: as §1

[5] = system: green foxtail (Setaria viridis (L.) P. Beauv.); assay: Test Example 2: herbicidal effect by soil application to upland field; conditions: soil surface spray, upland field soil, 1,000 g active ingredient per hectare, 21st day after application
How it was run: (§2)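 Soil-applied wettable powder, 1,000 g a.i./ha, sprayed after sowing onto covered field soil. Effect rated on a standard scale 21 days later in a greenhouse.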

[6] = system: slender amaranth (Amaranthus viridis L.); assay: as above; conditions: soil surface spray, upland field soil, 1,000 g active ingredient per hectare, 21st day after application
How it was run: as §2

[7] = system: velvetleaf (Abutilon theophrasti medicus); assay: as above; conditions: soil surface spray, upland field soil, 1,000 g active ingredient per hectare, 21st day after application
How it was run: as §2

[8] = system: barnyardgrass (Echinochloa crus-galli (L.) P. Beauv. var. crus-galli); assay: as above; conditions: soil surface spray, upland field soil, 1,000 g active ingredient per hectare, 21st day after application
How it was run: as §2

[9] = system: Japanese bulrush (Scirpus juncoides Roxb.); assay: Test Example 1: herbicidal effect by soil application to paddy field; conditions: paddy field soil application; active ingredient 1,000 g per 1 hectare; wettable powder added dropwise to water surface the day after sowing; examined on the 21st day after application
How it was run: (§3)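 Under greenhouse conditions, seeds sown on puddled paddy soil in 100 cm2 pots under 3 cm of standing water received the test compound; injury was assessed with a standard scoring scheme three weeks (day 21) after treatment.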

[10] = system: early watergrass (Echinochloa oryzicola Vasing); assay: as above; conditions: paddy field soil application; active ingredient 1,000 g per 1 hectare; wettable powder added dropwise to water surface the day after sowing; examined on the 21st day after application
How it was run: as §3

[11] = system: heartshape false pickerelweed (Monochoria vaginalis (Burm.f.) C.Presl); assay: as above; conditions: paddy field soil application; active ingredient 1,000 g per 1 hectare; wettable powder added dropwise to water surface the day after sowing; examined on the 21st day after application
How it was run: as §3

[12] = foliage treatment, plants grown two weeks, 1,000 g active ingredient per hectare

Compound | herbicidal effect, Green Foxtail [1] | herbicidal effect, Slender Amaranth [2] | herbicidal effect, Velvetleaf [3] | herbicidal effect, Barnyardgrass [4] | herbicidal effect (index), Green Foxtail [5] | herbicidal effect (index), Slender Amaranth [6] | herbicidal effect (index), Velvetleaf [7] | herbicidal effect (index), Barnyardgrass [8] | herbicidal effect, Scirpus juncoides Roxb. [9] | herbicidal effect, Echinochloa oryzicola Vasing [10] | herbicidal effect, Monochoria vaginalis (Burm. f.) C. Presl [11] | herbicidal effect (index), Green Foxtail [1, 12] | herbicidal effect (index), Slender Amaranth [2, 12] | herbicidal effect (index), Velvetleaf [3, 12] | herbicidal effect (index), Barnyardgrass [4, 12]
Cn1c(C(F)(F)C(F)(F)F)ccc(C(=O)C2=C(O)CCCC2=O)c1=O [I-227] | 5 (90% or more of herbicidal effect and crop phytotoxicity) | 5 (90% or more of herbicidal effect and crop phytotoxicity) | 5 (90% or more of herbicidal effect and crop phytotoxicity) | 3 (50 to less than 70% of herbicidal effect and crop phytotoxicity) | 5 (90% or more of herbicidal effect and crop phytotoxicity) | 5 (90% or more of herbicidal effect and crop phytotoxicity) | 5 (90% or more of herbicidal effect and crop phytotoxicity) | 4 (70 to less than 90% of herbicidal effect and crop phytotoxicity) | 5 (90% or more of herbicidal effect and crop phytotoxicity) | 5 (90% or more of herbicidal effect and crop phytotoxicity) | 5 (90% or more of herbicidal effect and crop phytotoxicity) |  |  |  | 
O=C1CCCC(O)=C1C(=O)c1ccc(C(F)(F)F)n(N2CCOCC2)c1=O [I-178] | 5 (90% or more of herbicidal effect and crop phytotoxicity) | 5 (90% or more of herbicidal effect and crop phytotoxicity) | 5 (90% or more of herbicidal effect and crop phytotoxicity) | 5 (90% or more of herbicidal effect and crop phytotoxicity) | 5 (90% or more of herbicidal effect and crop phytotoxicity) | 5 (90% or more of herbicidal effect and crop phytotoxicity) | 5 (90% or more of herbicidal effect and crop phytotoxicity) | 5 (90% or more of herbicidal effect and crop phytotoxicity) | 5 (90% or more of herbicidal effect and crop phytotoxicity) | 5 (90% or more of herbicidal effect and crop phytotoxicity) | 5 (90% or more of herbicidal effect and crop phytotoxicity) |  |  |  | 
CCOCCn1c(C(F)(F)F)ccc(C(=O)c2cnn(C)c2OC(=O)c2ccccc2)c1=O [IV-35] | 5 (90% or more of herbicidal effect and crop phytotoxicity) | 5 (90% or more of herbicidal effect and crop phytotoxicity) | 5 (90% or more of herbicidal effect and crop phytotoxicity) | 5 (90% or more of herbicidal effect and crop phytotoxicity) | 5 (90% or more of herbicidal effect and crop phytotoxicity) | 5 (90% or more of herbicidal effect and crop phytotoxicity) | 5 (90% or more of herbicidal effect and crop phytotoxicity) | 5 (90% or more of herbicidal effect and crop phytotoxicity) | 5 (90% or more of herbicidal effect and crop phytotoxicity) | 5 (90% or more of herbicidal effect and crop phytotoxicity) | 5 (90% or more of herbicidal effect and crop phytotoxicity) |  |  |  | 
CN(C)n1c(C(F)(F)F)ccc(C(=O)C2=C(O)CCCC2=O)c1=O [I-171] | 4 (70 to less than 90% of herbicidal effect and crop phytotoxicity) | 5 (90% or more of herbicidal effect and crop phytotoxicity) | 5 (90% or more of herbicidal effect and crop phytotoxicity) | 5 (90% or more of herbicidal effect and crop phytotoxicity) | 4 (70 to less than 90% of herbicidal effect and crop phytotoxicity) | 5 (90% or more of herbicidal effect and crop phytotoxicity) | 5 (90% or more of herbicidal effect and crop phytotoxicity) | 5 (90% or more of herbicidal effect and crop phytotoxicity) | 5 (90% or more of herbicidal effect and crop phytotoxicity) | 5 (90% or more of herbicidal effect and crop phytotoxicity) | 5 (90% or more of herbicidal effect and crop phytotoxicity) |  |  |  | 
Cn1ncc(C(=O)c2ccc(C(F)(F)F)n(C)c2=O)c1OC(=O)c1ccc(C(C)(C)C)cc1 [IV-198] | 3 (50 to less than 70% of herbicidal effect and crop phytotoxicity) | 5 (90% or more of herbicidal effect and crop phytotoxicity) | 5 (90% or more of herbicidal effect and crop phytotoxicity) | 4 (70 to less than 90% of herbicidal effect and crop phytotoxicity) | 3 (50 to less than 70% of herbicidal effect and crop phytotoxicity) | 5 (90% or more of herbicidal effect and crop phytotoxicity) | 4 (70 to less than 90% of herbicidal effect and crop phytotoxicity) | 3 (50 to less than 70% of herbicidal effect and crop phytotoxicity) | 5 (90% or more of herbicidal effect and crop phytotoxicity) | 5 (90% or more of herbicidal effect and crop phytotoxicity) | 5 (90% or more of herbicidal effect and crop phytotoxicity) |  |  |  | 
O=C1CCCC(O)=C1C(=O)c1ccc(C(F)(F)F)n(N2CCCC2)c1=O [I-177] | 4 (70 to less than 90% of herbicidal effect and crop phytotoxicity) | 5 (90% or more of herbicidal effect and crop phytotoxicity) | 5 (90% or more of herbicidal effect and crop phytotoxicity) | 5 (90% or more of herbicidal effect and crop phytotoxicity) | 5 (90% or more of herbicidal effect and crop phytotoxicity) | 5 (90% or more of herbicidal effect and crop phytotoxicity) | 5 (90% or more of herbicidal effect and crop phytotoxicity) | 5 (90% or more of herbicidal effect and crop phytotoxicity) | 5 (90% or more of herbicidal effect and crop phytotoxicity) | 5 (90% or more of herbicidal effect and crop phytotoxicity) | 5 (90% or more of herbicidal effect and crop phytotoxicity) |  |  |  | 
Cn1ncc(C(=O)c2ccc(C(F)(F)F)n(-c3ccc(F)c(F)c3)c2=O)c1O [IV-85] | 5 (90% or more of herbicidal effect and crop phytotoxicity) | 5 (90% or more of herbicidal effect and crop phytotoxicity) | 5 (90% or more of herbicidal effect and crop phytotoxicity) | 5 (90% or more of herbicidal effect and crop phytotoxicity) | 5 (90% or more of herbicidal effect and crop phytotoxicity) | 5 (90% or more of herbicidal effect and crop phytotoxicity) | 5 (90% or more of herbicidal effect and crop phytotoxicity) | 5 (90% or more of herbicidal effect and crop phytotoxicity) | 5 (90% or more of herbicidal effect and crop phytotoxicity) | 5 (90% or more of herbicidal effect and crop phytotoxicity) | 5 (90% or more of herbicidal effect and crop phytotoxicity) |  |  |  | 
COCCn1c(C(F)(F)F)ccc(C(=O)C2=C(O)CCCC2=O)c1=O [I-31] |  |  |  |  | 5 (90% or more of herbicidal effect and crop phytotoxicity) | 5 (90% or more of herbicidal effect and crop phytotoxicity) | 5 (90% or more of herbicidal effect and crop phytotoxicity) | 5 (90% or more of herbicidal effect and crop phytotoxicity) | 5 (90% or more of herbicidal effect and crop phytotoxicity) | 5 (90% or more of herbicidal effect and crop phytotoxicity) | 5 (90% or more of herbicidal effect and crop phytotoxicity) | 5 (90% or more of herbicidal effect and crop phytotoxicity) | 5 (90% or more of herbicidal effect and crop phytotoxicity) | 5 (90% or more of herbicidal effect and crop phytotoxicity) | 5 (90% or more of herbicidal effect and crop phytotoxicity)
